According to PMC5218480 (PLoS ONE, 2017):

Tested on: MV-4-11 cells
Test: Gene expression microarray analysis (Affymetrix PrimeView) and GSEA
Type: cell-based, human
Set-up: RFU PODN (11730768_x_at) / Fold change /veh PODN (11730768_x_at) / RFU LINC00158 (11744669_a_at) / Fold change /veh LINC00158 (11744669_a_at) / RFU DUSP10 (11751237_a_at) / Fold change /veh DUSP10 (11751237_a_at) / RFU ID3 (11757404_x_at) / Fold change /veh ID3 (11757404_x_at) / RFU PLEKHG5 (11737974_s_at) / Fold change /veh PLEKHG5 (11737974_s_at) / RFU LRRC4B (11730491_at) / Fold change /veh LRRC4B (11730491_at) / RFU GIMAP4 (11747438_a_at) / Fold change /veh GIMAP4 (11747438_a_at) / RFU KRT8 (11758183_x_at) / Fold change /veh KRT8 (11758183_x_at) / RFU CNN1 (11734310_a_at) / Fold change /veh CNN1 (11734310_a_at) / RFU VPS37D (11726825_at) / Fold change /veh VPS37D (11726825_at) / RFU C10orf10 (11716522_x_at) / Fold change /veh C10orf10 (11716522_x_at) / RFU KIR2DL2 /// KIR2DL4 /// KIR2DL5A /// KIR2DL5B /// KIR2DS1 /// KIR2DS2 /// KIR2DS3 /// KIR2DS4 /// KIR3DL3 /// KIR3DL3 /// KIR3DS1 (11738374_at) / Fold change /veh KIR2DL2 /// KIR2DL4 /// KIR2DL5A /// KIR2DL5B /// KIR2DS1 /// KIR2DS2 /// KIR2DS3 /// KIR2DS4 /// KIR3DL3 /// KIR3DL3 /// KIR3DS1 (11738374_at) / RFU C1QL1 (11718748_at) / Fold change /veh C1QL1 (11718748_at) / RFU TMPRSS4 (11747572_a_at) / Fold change /veh TMPRSS4 (11747572_a_at) / RFU HAMP (11756126_x_at) / Fold change /veh HAMP (11756126_x_at) / RFU RNFT2 (11725882_a_at) / Fold change /veh RNFT2 (11725882_a_at) / RFU NR4A2 (11747474_a_at) / Fold change /veh NR4A2 (11747474_a_at) / RFU ABCC12 (11746883_a_at) / Fold change /veh ABCC12 (11746883_a_at) / RFU TMEM136 (11760407_x_at) / Fold change /veh TMEM136 (11760407_x_at) / RFU CLDN22 /// WWC2 (11732394_at) / Fold change /veh CLDN22 /// WWC2 (11732394_at) / RFU HLA-DPB1 (11760878_x_at) / Fold change /veh HLA-DPB1 (11760878_x_at) / RFU SPINT1 (11716480_a_at) / Fold change /veh SPINT1 (11716480_a_at) / RFU GAP43 (11754022_s_at) / Fold change /veh GAP43 (11754022_s_at) / RFU A4GNT (11735810_at) / Fold change /veh A4GNT (11735810_at) / RFU PRB3 (11715151_x_at) / Fold change /veh PRB3 (11715151_x_at) / RFU TUBB4B (11761932_at) / Fold change /veh TUBB4B (11761932_at) / RFU CAPN14 (11732068_a_at) / Fold change /veh CAPN14 (11732068_a_at) / RFU TMCC2 (11721928_a_at) / Fold change /veh TMCC2 (11721928_a_at) / RFU IRGQ (11745062_a_at) / Fold change /veh IRGQ (11745062_a_at) / RFU FAM174B (11720279_a_at) / Fold change /veh FAM174B (11720279_a_at) / RFU TMPRSS4 (11748680_a_at) / Fold change /veh TMPRSS4 (11748680_a_at) / RFU FAM212B (11763350_a_at) / Fold change /veh FAM212B (11763350_a_at) / RFU PLEKHG5 (11743358_a_at) / Fold change /veh PLEKHG5 (11743358_a_at) / RFU ZSCAN30 (11745921_a_at) / Fold change /veh ZSCAN30 (11745921_a_at) / RFU CMKLR1 (11741424_a_at) / Fold change /veh CMKLR1 (11741424_a_at) / RFU LOC101060620 /// MAPK8IP1 (11723275_at) / Fold change /veh LOC101060620 /// MAPK8IP1 (11723275_at) / RFU SPTSSB (11747773_x_at) / Fold change /veh SPTSSB (11747773_x_at) / RFU PRSS12 (11739890_at) / Fold change /veh PRSS12 (11739890_at) / RFU BIN1 (11741810_x_at) / Fold change /veh BIN1 (11741810_x_at) / RFU WNT11 (11732464_a_at) / Fold change /veh WNT11 (11732464_a_at) / RFU C10orf10 (11716521_a_at) / Fold change /veh C10orf10 (11716521_a_at) / RFU C5orf56 (11738089_at) / Fold change /veh C5orf56 (11738089_at) / RFU CYB561 (11721691_x_at) / Fold change /veh CYB561 (11721691_x_at) / RFU ANKRD19P (11752326_a_at) / Fold change /veh ANKRD19P (11752326_a_at) / RFU OR2T12 /// OR2T33 /// OR2T8 (11738714_s_at) / Fold change /veh OR2T12 /// OR2T33 /// OR2T8 (11738714_s_at) / RFU VCAN (11748164_a_at) / Fold change /veh VCAN (11748164_a_at) / RFU JSRP1 (11732532_at) / Fold change /veh JSRP1 (11732532_at) / RFU KRTAP10-11 (11738290_x_at) / Fold change /veh KRTAP10-11 (11738290_x_at) / RFU MYO3A (11730013_a_at) / Fold change /veh MYO3A (11730013_a_at) / RFU EBF3 (11725865_a_at) / Fold change /veh EBF3 (11725865_a_at) / RFU CAMK2N1 (11719241_x_at) / Fold change /veh CAMK2N1 (11719241_x_at) / RFU C5orf56 (11738088_a_at) / Fold change /veh C5orf56 (11738088_a_at) / RFU OLFML3 (11715873_a_at) / Fold change /veh OLFML3 (11715873_a_at) / RFU LOC100653217 /// NTM (11731650_a_at) / Fold change /veh LOC100653217 /// NTM (11731650_a_at) / RFU MAPK11 (11762145_a_at) / Fold change /veh MAPK11 (11762145_a_at) / RFU FIZ1 (11724087_x_at) / Fold change /veh FIZ1 (11724087_x_at) / RFU OASL (11726364_x_at) / Fold change /veh OASL (11726364_x_at) / RFU SOX15 (11748057_x_at) / Fold change /veh SOX15 (11748057_x_at) / RFU CD79A (11719716_a_at) / Fold change /veh CD79A (11719716_a_at) / RFU HIST1H1D (11736915_at) / Fold change /veh HIST1H1D (11736915_at) / RFU CASKIN2 (11723855_a_at) / Fold change /veh CASKIN2 (11723855_a_at) / RFU LOC730098 (11760151_x_at) / Fold change /veh LOC730098 (11760151_x_at) / RFU OR4N2 (11742367_at) / Fold change /veh OR4N2 (11742367_at) / RFU PRRT2 (11749266_a_at) / Fold change /veh PRRT2 (11749266_a_at) / RFU SNX32 (11753110_a_at) / Fold change /veh SNX32 (11753110_a_at) / RFU CDHR5 (11726645_a_at) / Fold change /veh CDHR5 (11726645_a_at) / RFU RCAN1 (11760418_a_at) / Fold change /veh RCAN1 (11760418_a_at) / RFU FAM167A (11723789_a_at) / Fold change /veh FAM167A (11723789_a_at) / RFU FAM26E (11764081_at) / Fold change /veh FAM26E (11764081_at) / RFU ISYNA1 (11749810_s_at) / Fold change /veh ISYNA1 (11749810_s_at) / RFU ACY1 (11761880_at) / Fold change /veh ACY1 (11761880_at) / RFU 11764098_at / Fold change /veh 11764098_at / RFU SAMD14 (11745864_x_at) / Fold change /veh SAMD14 (11745864_x_at) / RFU NPB (11741838_a_at) / Fold change /veh NPB (11741838_a_at) / RFU TMPRSS6 (11731388_a_at) / Fold change /veh TMPRSS6 (11731388_a_at) / RFU KRTAP10-2 (11738614_at) / Fold change /veh KRTAP10-2 (11738614_at) / RFU ARHGAP8 /// PRR5-ARHGAP8 (11727945_x_at) / Fold change /veh ARHGAP8 /// PRR5-ARHGAP8 (11727945_x_at) / RFU KRTAP5-7 /// NADSYN1 (11734609_at) / Fold change /veh KRTAP5-7 /// NADSYN1 (11734609_at) / RFU RASL12 (11751679_a_at) / Fold change /veh RASL12 (11751679_a_at) / RFU CDKN2B (11736163_a_at) / Fold change /veh CDKN2B (11736163_a_at) / RFU PRF1 (11729649_at) / Fold change /veh PRF1 (11729649_at) / RFU, ZNF638 /// ZNF638-IT1 / Fold change vs veh, ZNF638 /// ZNF638-IT1 / RFU, PANK3 / Fold change vs veh, PANK3 / RFU, SH3YL1 / Fold change vs veh, SH3YL1 / RFU, ZEB2 / Fold change vs veh, ZEB2 / RFU, NRIP1 / Fold change vs veh, NRIP1 / RFU, PTTG1IP / Fold change vs veh, PTTG1IP / RFU, CAPN2 / Fold change vs veh, CAPN2 / RFU, MED14 / Fold change vs veh, MED14 / RFU, SNORA58 / Fold change vs veh, SNORA58 / RFU, C1orf63 / Fold change vs veh, C1orf63 / RFU, LRRFIP1 / Fold change vs veh, LRRFIP1 / RFU, NDUFAF7 / Fold change vs veh, NDUFAF7 / RFU, SLC12A2 / Fold change vs veh, SLC12A2 / RFU, IBTK / Fold change vs veh, IBTK / RFU, ESF1 / Fold change vs veh, ESF1 / Fold change vs veh, TMEM50B / RFU, TAOK1 / Fold change vs veh, TAOK1 / RFU, ACBD3 / Fold change vs veh, ACBD3 / RFU, TMA16 / Fold change vs veh, TMA16 / RFU, RWDD3 / Fold change vs veh, RWDD3 / RFU, BCAT1 / Fold change vs veh, BCAT1 / RFU, EDEM3 / Fold change vs veh, EDEM3 / RFU, TMEM33 / Fold change vs veh, TMEM33 / RFU, WDR75 / Fold change vs veh, WDR75 / RFU, AHCTF1 / Fold change vs veh, AHCTF1 / RFU, TFRC / Fold change vs veh, TFRC / RFU, ZDHHC17 / Fold change vs veh, ZDHHC17 / RFU, NOM1 / Fold change vs veh, NOM1 / RFU, ARL8B / Fold change vs veh, ARL8B / RFU, ZBTB11 / Fold change vs veh, ZBTB11 / RFU, TAMM41 / Fold change vs veh, TAMM41 / RFU, KIAA1704 /// LOC100996395 / Fold change vs veh, KIAA1704 /// LOC100996395 / RFU, ING1 / Fold change vs veh, ING1 / RFU, TRMT61B / Fold change vs veh, TRMT61B / RFU, FUBP3 / Fold change vs veh, FUBP3 / RFU, TP53 / Fold change vs veh, TP53 / RFU, TNKS2 / Fold change vs veh, TNKS2 / RFU, ZFP14 / Fold change vs veh, ZFP14 / RFU, ACTR2 / Fold change vs veh, ACTR2 / RFU, PPP3R1 / Fold change vs veh, PPP3R1 / RFU, PIK3R1 / Fold change vs veh, PIK3R1 / RFU, HNRNPA1 / Fold change vs veh, HNRNPA1 / RFU, RNF170 / Fold change vs veh, RNF170 / RFU, ZNF28 / Fold change vs veh, ZNF28 / RFU, RNGTT / Fold change vs veh, RNGTT / RFU, OGT / Fold change vs veh, OGT / RFU, BRD1 / Fold change vs veh, BRD1 / RFU, MARS / Fold change vs veh, MARS / RFU, ZNF655 / Fold change vs veh, ZNF655 / RFU, FAHD1 / Fold change vs veh, FAHD1 / RFU, BDP1 / Fold change vs veh, BDP1 / RFU, LRRCC1 / Fold change vs veh, LRRCC1 / RFU, ARID1A / Fold change vs veh, ARID1A / RFU, ZNF146 / Fold change vs veh, ZNF146 / RFU, ZNF330 / Fold change vs veh, ZNF330 / RFU, GPN3 / Fold change vs veh, GPN3 / RFU, C9orf123 / Fold change vs veh, C9orf123 / RFU, N4BP2L2 / Fold change vs veh, N4BP2L2 / RFU, ARFIP1 / Fold change vs veh, ARFIP1 / RFU, FAM179B / Fold change vs veh, FAM179B / RFU, BCL10 / Fold change vs veh, BCL10 / RFU, UHRF1BP1L / Fold change vs veh, UHRF1BP1L / RFU, BET1 / Fold change vs veh, BET1 / RFU, CNOT2 / Fold change vs veh, CNOT2 / RFU, ZNF268 / Fold change vs veh, ZNF268 / Fold change vs veh, ZNF507 / RFU, DGCR2 / Fold change vs veh, DGCR2 / RFU, WDSUB1 / Fold change vs veh, WDSUB1 / Fold change vs veh, HSP90B1 /// MIR3652 / RFU, ADSS / Fold change vs veh, ADSS / RFU, GK / Fold change vs veh, GK / RFU, ZNF148 / Fold change vs veh, ZNF148 / RFU, TAF9 / Fold change vs veh, TAF9 / RFU, SLC1A5 / Fold change vs veh, SLC1A5 / RFU, SLMO2 / Fold change vs veh, SLMO2 / RFU, ABCC4 / Fold change vs veh, ABCC4 / RFU, LOC101060439 /// RAP1B / Fold change vs veh, LOC101060439 /// RAP1B / RFU, RFX7 / Fold change vs veh, RFX7 / RFU, GTPBP10 / Fold change vs veh, GTPBP10 / RFU, CNEP1R1 / Fold change vs veh, CNEP1R1 / RFU, BIVM-ERCC5 /// ERCC5 / Fold change vs veh, BIVM-ERCC5 /// ERCC5 / RFU, ILF3 / Fold change vs veh, ILF3 / RFU 11762660_at / Fold change /veh 11762660_at / RFU VCAN (11757783_s_at) / Fold change /veh VCAN (11757783_s_at) / RFU DDX43 (11728927_at) / Fold change /veh DDX43 (11728927_at) / RFU KRT8 (11758188_x_at) / Fold change /veh KRT8 (11758188_x_at) / RFU NKD1 (11759106_at) / Fold change /veh NKD1 (11759106_at) / RFU SRD5A1 (11742802_a_at) / Fold change /veh SRD5A1 (11742802_a_at) / RFU TPSAB1 /// TPSB2 (11721975_s_at) / Fold change /veh TPSAB1 /// TPSB2 (11721975_s_at) / RFU GSTM3 (11746129_a_at) / Fold change /veh GSTM3 (11746129_a_at) / RFU IL23R (11737362_x_at) / Fold change /veh IL23R (11737362_x_at) / RFU TMEM51 (11727254_a_at) / Fold change /veh TMEM51 (11727254_a_at) / RFU PIWIL2 (11732686_x_at) / Fold change /veh PIWIL2 (11732686_x_at) / RFU ORM1 (11744905_x_at) / Fold change /veh ORM1 (11744905_x_at) / RFU CCDC152 (11743942_at) / Fold change /veh CCDC152 (11743942_at) / RFU ECM1 (11717891_a_at) / Fold change /veh ECM1 (11717891_a_at) / RFU IL23R (11748794_a_at) / Fold change /veh IL23R (11748794_a_at) / RFU TNFAIP8L3 (11732012_x_at) / Fold change /veh TNFAIP8L3 (11732012_x_at) / RFU MBOAT4 (11741988_at) / Fold change /veh MBOAT4 (11741988_at) / RFU 11764193_at / Fold change /veh 11764193_at / RFU TMEM53 (11763286_at) / Fold change /veh TMEM53 (11763286_at) / RFU MAGEB2 (11727129_at) / Fold change /veh MAGEB2 (11727129_at) / RFU TMEM200A (11744735_a_at) / Fold change /veh TMEM200A (11744735_a_at) / RFU CCDC152 (11751479_a_at) / Fold change /veh CCDC152 (11751479_a_at) / RFU FAM211A (11726209_a_at) / Fold change /veh FAM211A (11726209_a_at) / RFU RGS16 (11746705_a_at) / Fold change /veh RGS16 (11746705_a_at) / RFU VCAN (11755009_s_at) / Fold change /veh VCAN (11755009_s_at) / RFU RHOB (11743442_s_at) / Fold change /veh RHOB (11743442_s_at) / RFU RGS16 (11720943_a_at) / Fold change /veh RGS16 (11720943_a_at) / RFU RGS16 (11720944_at) / Fold change /veh RGS16 (11720944_at) / RFU, VPS4B / Fold change vs veh, VPS4B / RFU, CREB1 / Fold change vs veh, CREB1 / RFU, DNAJC13 / Fold change vs veh, DNAJC13 / RFU, GNAQ / Fold change vs veh, GNAQ / RFU, CDK5R1 / Fold change vs veh, CDK5R1 / RFU, ZRANB3 / Fold change vs veh, ZRANB3 / RFU, CUL4A / Fold change vs veh, CUL4A / RFU, CCNY / Fold change vs veh, CCNY / RFU, UFL1 / Fold change vs veh, UFL1 / RFU, COG3 / Fold change vs veh, COG3 / RFU, DIAPH2 / Fold change vs veh, DIAPH2 / RFU, SKA2 / Fold change vs veh, SKA2 / RFU, AFF3 / Fold change vs veh, AFF3 / RFU, LMF1 / Fold change vs veh, LMF1 / RFU, IPO11 / Fold change vs veh, IPO11 / RFU, DFFB / Fold change vs veh, DFFB / RFU, FOXP1 / Fold change vs veh, FOXP1 / RFU, CARD8 / Fold change vs veh, CARD8 / RFU, STRN3 / Fold change vs veh, STRN3 / RFU, ADK / Fold change vs veh, ADK / RFU, RASSF2 / Fold change vs veh, RASSF2 / RFU, WIPF1 / Fold change vs veh, WIPF1 / RFU, LARP1B / Fold change vs veh, LARP1B / RFU, RASA1 / Fold change vs veh, RASA1 / RFU, RB1 / Fold change vs veh, RB1 / RFU, PPFIA1 / Fold change vs veh, PPFIA1 / RFU, MAT2A / Fold change vs veh, MAT2A / RFU, CCT5 / Fold change vs veh, CCT5 / RFU, WDR92 / Fold change vs veh, WDR92 / RFU, CUX1 / Fold change vs veh, CUX1 / RFU, TTC7A / Fold change vs veh, TTC7A / RFU, TMEM135 / Fold change vs veh, TMEM135 / RFU, DEPTOR / Fold change vs veh, DEPTOR / RFU, CPM / Fold change vs veh, CPM / RFU, DNAJB6 / Fold change vs veh, DNAJB6 / RFU, CACNA2D3 / Fold change vs veh, CACNA2D3 / RFU, DTX4 / Fold change vs veh, DTX4 / RFU, TFCP2 / Fold change vs veh, TFCP2 / RFU, GMCL1 /// GMCL1P1 / Fold change vs veh, GMCL1 /// GMCL1P1 / RFU, AEBP2 / Fold change vs veh, AEBP2 / RFU, SNHG1 /// SNORD22 /// SNORD25 /// SNORD26 /// SNORD27 /// SNORD28 /// SNORD29 /// SNORD31 / Fold change vs veh, SNHG1 /// SNORD22 /// SNORD25 /// SNORD26 /// SNORD27 /// SNORD28 /// SNORD29 /// SNORD31 / Fold change (Aza/veh), C12orf56 (ProbeSet 11735607_a_at) / Fold change (ACY-1035/veh), C12orf56 (ProbeSet 11735607_a_at) / Fold change (Aza/veh), FGFR1OP (ProbeSet 11751329_s_at) / Fold change (ACY-1035/veh), FGFR1OP (ProbeSet 11751329_s_at) / Fold change (Aza/veh), VPS36 (ProbeSet 11739960_a_at) / Fold change (ACY-1035/veh), VPS36 (ProbeSet 11739960_a_at) / RFU SYPL1 (11715823_x_at) / Fold change /veh SYPL1 (11715823_x_at) / RFU IGFBP7 (11715501_s_at) / Fold change /veh IGFBP7 (11715501_s_at) / RFU REEP3 (11722064_at) / Fold change /veh REEP3 (11722064_at) / RFU IGLL1 (11728026_x_at) / Fold change /veh IGLL1 (11728026_x_at): dose or concentration left out as unconfirmed
Conditions: MV-4-11 cells, 48 hours

## Nc1ccc(-c2cccs2)cc1NC(=O)c1ccc2c(c1)cc(C1CC1)n2CCN1CCOCC1 [ACY-1035]
  RFU DDX43 (11728927_at): 10.07 RFU
